Data from ChEMBL document CHEMBL1150188, “Chemistry of Sponges, X. New Sesquiterpenes from a Marine Sponge of the Genus Eurypon” (J Nat Prod, 1990).
The source made the active and inactive calls. The rule behind the calls is not given here.

Tested on: Escherichia coli
Experiment: Antimicrobial activity against Escherichia coli at 100 ug/disk by standard disk assay
Format: functional, organism-based

`CC1(C)C[C@@H]2C3=C[C@@H](O)C[C@](C)(CC[C@@H]21)C3` was tested, and the Activity was “Active”.
